# Legend:
# Assay type in all cases: functional
# [1] = system: Cryptococcus neoformans; test: Antifungal activity against Cryptococcus neoformans LA314 assessed as reduction in fungal cell growth incubated for 48 hrs by broth microdilution method; settings: LA314, 48 h
# [2] = system: Nakaseomyces glabratus; test: Antifungal activity against Candida glabrata assessed as reduction in fungal cell growth incubated for 48 hrs by broth microdilution method
# [3] = system: Candida parapsilosis; test: Antifungal activity against Candida parapsilosis ATCC 22019 assessed as reduction in fungal cell growth incubated for 48 hrs by broth microdilution method; settings: Lodderomyces parapsilosis, ATCC 22019, 48 h
# [4] = system: Pichia kudriavzevii; test: Antifungal activity against Candida krusei assessed as reduction in fungal cell growth incubated for 48 hrs by broth microdilution method
# [5] = system: Candida albicans; test: Antifungal activity against Candida albicans assessed as reduction in fungal cell growth incubated for 48 hrs by broth microdilution method
# [6] = system: Candida tropicalis; test: Antifungal activity against Candida tropicalis assessed as reduction in fungal cell growth incubated for 48 hrs by broth microdilution method
# [7] = system: Aspergillus niger; test: Antifungal activity against Aspergillus niger assessed as reduction in fungal cell growth incubated for 72 hrs by broth microdilution method
Compound,MIC [1],MIC [2],MIC [3],MIC [4],MIC [5],MIC [6],MIC [7]
COc1ccccc1N1CCN(CCc2nnn([C@@H](C)[C@](O)(Cn3cncn3)c3ccc(F)cc3F)n2)CC1,0.25 to 16 µg/mL,0.25 to 16 µg/mL,0.25 to 16 µg/mL,0.25 to 16 µg/mL,0.25 to 16 µg/mL,0.25 to 16 µg/mL,0.25 to 16 µg/mL
C[C@H](n1nnnc1CCN1CCN(c2cccc(Cl)c2)CC1)[C@](O)(Cn1cncn1)c1ccc(F)cc1F,0.12 to 16 µg/mL,0.12 to 16 µg/mL,0.12 to 16 µg/mL,0.12 to 16 µg/mL,0.12 to 16 µg/mL,0.12 to 16 µg/mL,0.12 to 16 µg/mL
C[C@H](n1nnc(CCN2CCN(c3cccc(C(F)(F)F)c3)CC2)n1)[C@](O)(Cn1cncn1)c1ccc(F)cc1F,0.25 to 16 µg/mL,0.25 to 16 µg/mL,0.25 to 16 µg/mL,0.25 to 16 µg/mL,0.25 to 16 µg/mL,0.25 to 16 µg/mL,0.25 to 16 µg/mL
OC(Cn1cncn1)(Cn1nnnc1CCN1CCN(c2c(Cl)cccc2Cl)CC1)c1ccc(F)cc1F (stereo unspecified),0.5 to 16 µg/mL,0.5 to 16 µg/mL,0.5 to 16 µg/mL,0.5 to 16 µg/mL,0.5 to 16 µg/mL,0.5 to 16 µg/mL,0.5 to 16 µg/mL
CC(n1nnc(CCN2CCN(c3cccc(C(F)(F)F)c3)CC2)n1)C(O)(Cn1cncn1)c1ccc(F)cc1F (stereo unspecified),1 to 16 µg/mL,1 to 16 µg/mL,1 to 16 µg/mL,1 to 16 µg/mL,1 to 16 µg/mL,1 to 16 µg/mL,1 to 16 µg/mL
C[C@H](n1nnc(CCN2CCN(Cc3ccccc3)CC2)n1)[C@](O)(Cn1cncn1)c1ccc(F)cc1F,0.25 to 16 µg/mL,0.25 to 16 µg/mL,0.25 to 16 µg/mL,0.25 to 16 µg/mL,0.25 to 16 µg/mL,0.25 to 16 µg/mL,0.25 to 16 µg/mL
O=[N+]([O-])c1ccc(N2CCN(CCc3nnnn3CC(O)(Cn3cncn3)c3ccc(F)cc3F)CC2)cc1 (stereo unspecified),0.5 to 16 µg/mL,0.5 to 16 µg/mL,0.5 to 16 µg/mL,0.5 to 16 µg/mL,0.5 to 16 µg/mL,0.5 to 16 µg/mL,0.5 to 16 µg/mL
C[C@H](n1nnnc1CCN1CCN(c2ccccc2)CC1)[C@](O)(Cn1cncn1)c1ccc(F)cc1F,0.12 to 16 µg/mL,0.12 to 16 µg/mL,0.12 to 16 µg/mL,0.12 to 16 µg/mL,0.12 to 16 µg/mL,0.12 to 16 µg/mL,0.12 to 16 µg/mL
C[C@H](n1nnnc1CCN1CCN(C(c2ccccc2)c2ccccc2)CC1)[C@](O)(Cn1cncn1)c1ccc(F)cc1F,0.12 to 16 µg/mL,0.12 to 16 µg/mL,0.12 to 16 µg/mL,0.12 to 16 µg/mL,0.12 to 16 µg/mL,0.12 to 16 µg/mL,0.12 to 16 µg/mL
CCCCOc1ccccc1N1CCN(CCc2nnn([C@@H](C)[C@](O)(Cn3cncn3)c3ccc(F)cc3F)n2)CC1,0.25 to 16 µg/mL,0.25 to 16 µg/mL,0.25 to 16 µg/mL,0.25 to 16 µg/mL,0.25 to 16 µg/mL,0.25 to 16 µg/mL,0.25 to 16 µg/mL

# The next lines start with the values.
MIC [1],MIC [2],MIC [3],MIC [4],MIC [5],MIC [6],MIC [7],Compound
0.5 to 16 µg/mL,0.5 to 16 µg/mL,0.5 to 16 µg/mL,0.5 to 16 µg/mL,0.5 to 16 µg/mL,0.5 to 16 µg/mL,0.5 to 16 µg/mL,OC(Cn1cncn1)(Cn1nnnc1CCN1CCN(c2ccccc2)CC1)c1ccc(F)cc1F (stereo unspecified)
1 to 16 µg/mL,1 to 16 µg/mL,1 to 16 µg/mL,1 to 16 µg/mL,1 to 16 µg/mL,1 to 16 µg/mL,1 to 16 µg/mL,CC(n1nnc(CCN2CCN(c3ccc(Cl)cc3)CC2)n1)C(O)(Cn1cncn1)c1ccc(F)cc1F (stereo unspecified)
1 to 16 µg/mL,1 to 16 µg/mL,1 to 16 µg/mL,1 to 16 µg/mL,1 to 16 µg/mL,1 to 16 µg/mL,1 to 16 µg/mL,CC(n1nnc(CCN2CCN(c3ccccc3Cl)CC2)n1)C(O)(Cn1cncn1)c1ccc(F)cc1F (stereo unspecified)
1 to 16 µg/mL,1 to 16 µg/mL,1 to 16 µg/mL,1 to 16 µg/mL,1 to 16 µg/mL,1 to 16 µg/mL,1 to 16 µg/mL,OC(Cn1cncn1)(Cn1nnc(CCN2CCN(c3c(Cl)cccc3Cl)CC2)n1)c1ccc(F)cc1F (stereo unspecified)
0.5 to 16 µg/mL,0.5 to 16 µg/mL,0.5 to 16 µg/mL,0.5 to 16 µg/mL,0.5 to 16 µg/mL,0.5 to 16 µg/mL,0.5 to 16 µg/mL,OC(Cn1cncn1)(Cn1nnnc1CCN1CCN(c2ccc(Cc3ccccc3)cc2)CC1)c1ccc(F)cc1F (stereo unspecified)
0.12 to 16 µg/mL,0.12 to 16 µg/mL,0.12 to 16 µg/mL,0.12 to 16 µg/mL,0.12 to 16 µg/mL,0.12 to 16 µg/mL,0.12 to 16 µg/mL,C[C@H](n1nnnc1CCN1CCN(Cc2ccccc2)CC1)[C@](O)(Cn1cncn1)c1ccc(F)cc1F
0.12 to 16 µg/mL,0.12 to 16 µg/mL,0.12 to 16 µg/mL,0.12 to 16 µg/mL,0.12 to 16 µg/mL,0.12 to 16 µg/mL,0.12 to 16 µg/mL,C[C@H](n1nnnc1CCN1CCN(c2ccc(F)cc2)CC1)[C@](O)(Cn1cncn1)c1ccc(F)cc1F
1 to 16 µg/mL,1 to 16 µg/mL,1 to 16 µg/mL,1 to 16 µg/mL,1 to 16 µg/mL,1 to 16 µg/mL,1 to 16 µg/mL,OC(Cn1cncn1)(Cn1nnc(CCN2CCN(c3cccc(C(F)(F)F)c3)CC2)n1)c1ccc(F)cc1F (stereo unspecified)
